Data as given in patent publication US4020111A, “Propynyloxy alkyl arene insecticides” (priority 1975, dated 1977).

Assays:
[1] = test system: Wilson strain house flies; format: in vivo, house fly (susceptible Wilson strain); conditions: for Contact Synergistic Ratio, Carbaryl (LC50 insecticide alone / LC50 with synergist): in vivo; for Contact Synergistic Ratio, Pyrolan (LC50 insecticide alone / LC50 with synergist): synergist to insecticide 5:1 by weight, 24 h
Method in brief: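 Flies held at room temperature in glass jars coated with acetone-deposited insecticide film, alone or with synergist at 5:1 synergist:insecticide by weight; 10% sugar supplied.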

[2] = test system: Rutgers A strain house flies; assay: topical application test, percent kill after 24 hours, Rutgers A strain; format: in vivo, house fly (resistant Rutgers A strain)
Procedure: In Table IX, and in the tables following it, the doses of topically applied insecticides and of synergists unless otherwise noted are expressed as micrograms per fly (μg/fly).
The synergistic effect of O-(2-propynyl) oximes with mobam was determined from topical application tests on susceptible, female, IN/WHO strain house flies and from tests on resistant, female, Rutgers A strain house flies. The synergist and insecticide were dissolved in ACS Grade acetone in such quantities that a 1.0μ liter volume applied to the thorax of 3-to-5 day old CO2 -anesthetized female adult house flies contained the desired dosage. After being treated, the flies were confined, 10 to a plaster petri dish, with 3-5 dishes/treatment, and held for 24-hr. observation of mortality. Reconstituted skim milk on cotton dental wicks was provided during the holding period. The percent kills after 24 hours are shown in Table X for the IN/WHO strain and Table XI for the Rutgers A strain.
The synergistic effect of benzyl 2-propynyl ethers with mobam was determined from topical application tests on IN/WHO and Rutgers A strain houseflies, following the procedure of Example 5. The percent kills after 24 hours are shown in Table XIV for the IN/WHO strain and in Table XV for the Rutgers A strain.
The synergistic effect with Diazinon of compounds I-B, I-D, I-F, I-G, I-H and I-I, identified in Tables I and Ia, was determined from topical application tests on IN/WHO strain houseflies and on Rutgers A strain houseflies by the procedure of Example 5. The percent kills after 24 hours are shown in Table XXV for the IN/WHO strain and Table XXVI for the Rutgers A strain.
The synergistic effect with GS 13005 of compounds I-A, I-B, I-D, I-E, I-F, I-G and I-I was determined from topical application tests to IN/WHO strain, Rutgers A strain and polyvalent CH strain houseflies using the procedures of Example 5. The percent kills of the IN/WHO strain flies after 24 hours are shown in Table XXVIII; of the Rutgers A strain, in Table XXIX; and of the polyvalent CH strain, in Table XXX. The doses of insecticide alone to the CH strain files caused 10-40% mortality.
The synergistic effect with Diazinon and GS 13005 of various of the benzyl 2-propynyl ethers identified in Tables II and IIa was determined by topical application tests on IN/WHO strain, and Rutgers A strain and polyvalent, resistant, CH strain houseflies using the procedures of Example 5. The percent kills after 24 hours of IN/WHO strain flies are shown in Table XXXI; of Rutgers A strain flies, in Table XXXII; and of CH strain flies, in Table XXXIII. The doses of insecticide alone to the CH strain flies caused 10-40% mortality.
The synergistic effect on IN/WHO strain flies and Rutgers A strain flies of compound IV-C with GS 13005 and with Diazinon was determined by the topical application procedure of Example 5. The percent kills of IN/WHO strain flies after 24 hours are shown in Tables XXXVI and XXXVII; the percent kills of Rutgers A strain flies are shown in Tables XXXVIII and XXXIX.

mice [3] = assay: extension of Secobarbital sleeping time by synergists; format: in vivo, Swiss albino white male mice; conditions: Secobarbital 37 mg/K; for Relative Sleeping Time: treated/control
Method in brief: (§1)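 Swiss albino male mice (~38 days, 25-30 g) given synergist at 74.0 or 110.0 mg/kg in corn oil 1 h before Secobarbital 37.0 mg/kg or Noludar 110.0 mg/kg in water. Sleeping time measured from drug dosing to righting-reflex recovery; relative sleeping time = treated ÷ drug-only control.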

mice [4] = assay: extension of Noludar sleeping time by synergists; format: in vivo, Swiss albino white male mice; conditions: Noludar 110 mg/K, synergist 110 mg/K; for Relative Sleeping Time: treated/control
Method in brief: as §1

CH strain flies = assay: spray application of pyrethrum, average percent knockdown with time; format: in vivo, housefly (CH strain); conditions: pyrethrum 100 + synergist 100 mg/cc
Procedure: The average percent knockdown of CH strain flies, as a function of time, resulting from spray application of pyrethrum, alone and with synergists, are given in Table XXXXIII. Duplicate tests were performed using 50 CH strain houseflies per test. Test solutions of 100 mg and 200mg of pyrethrum per cc of acetone, 200 mg of synergist per cc of acetone, and a mixture of 100 mg of pyrethrum and 100 mg of synergist per cc of acetone were prepared. The fifty CH strain houseflies were put in a 40 liter spray chamber and 1 cc of the test solution was sprayed into the test chamber with a spray pistol. The synergists alone at 200 mg/cc caused no knockdown.

[5] = Mobam 0.15 + synergist 0.75 μg/fly
[6] = Mobam 0.30 + synergist 1.5 μg/fly

SMILES | Contact Synergistic Ratio, Carbaryl (LC50 insecticide alone / LC50 with synergist) [1] | Contact Synergistic Ratio, Pyrolan (LC50 insecticide alone / LC50 with synergist) [1] | Mean Sleeping Time (mice [3]; synergist 74 mg/K) [min] | Relative Sleeping Time (mice [3]; synergist 74 mg/K) | Mean Sleeping Time (mice [3]; synergist 110 mg/K) [min] | Relative Sleeping Time (mice [3]; synergist 110 mg/K) | Mean Sleeping Time (mice [4]) [min] | Relative Sleeping Time (mice [4]) | average percent knockdown (CH strain flies; 5 min) [%] | average percent knockdown (CH strain flies; 10 min) [%] | average percent knockdown (CH strain flies; 15 min) [%] | average percent knockdown (CH strain flies; 20 min) [%] | average percent knockdown (CH strain flies; 25 min) [%] | average percent knockdown (CH strain flies; 30 min) [%] | average percent knockdown (CH strain flies; 40 min) [%] | average percent knockdown (CH strain flies; 50 min) [%] | average percent knockdown (CH strain flies; 60 min) [%] | also measured
C#CCON=C(C)c1ccc(Cl)cc1 [I-D] | 177 | 25 | 62 | 1.9 | 56 | 1.7 | 58 | 1.5 | 6 | 15 | 26 | 39 | 52 | 60 | 86 | 87 | 88 | percent kill after 24 hours [2, 5]: 19%; percent kill after 24 hours ([2]; Mobam 0.60 + synergist 3.0 μg/fly): 100%
C#CCON=C(C)c1ccc2ccccc2c1 [I-F] | 200 | 50 | 32 | 1.1 | 70 | 2.2 | 55 | 1.4 |  |  |  |  |  |  |  |  |  | percent kill after 24 hours ([2]; Diazinon 3.0 + synergist 3.0 μg/fly): 95%; percent kill after 24 hours ([2]; GS 13005 1.0 + synergist 5.0 μg/fly): 95%; percent kill after 24 hours [2, 6]: 38%
C#CCON=Cc1ccc(Cl)cc1Cl [I-G] |  |  | 27 | 1.0 | 55 | 1.7 | 48 | 1.2 | 7 | 12 | 31 | 36 | 59 | 66 | 89 | 93 | 94 | percent kill after 24 hours ([2]; Diazinon 3.0 + synergist 15 μg/fly): 100%
C#CCOCc1ccc(Cl)c(Cl)c1 [II-C] | 100 | 15 |  |  | 33 | 1.0 | 50 | 1.3 |  |  |  |  |  |  |  |  |  | percent kill after 24 hours [2, 6]: 20%
C#CCOCc1ccc(Cl)c(Cl)c1Cl [II-D] | 200 | 30 |  |  | 60 | 1.2 | 46 | 1.0 |  |  |  |  |  |  |  |  |  | 
C#CCOCc1c(Cl)ccc(Cl)c1Cl [II-E] | 120 | 20 |  |  | 44 | 1.4 | 45 | 1.1 | 5 | 9 | 17 | 44 | 55 | 59 | 77 | 93 | 95 | percent kill after 24 hours [2, 5]: 17%; percent kill after 24 hours ([2]; synergist alone 7.5 μg/fly): 0%
C#CCOCc1c(Cl)cccc1[N+](=O)[O-] [II-K] |  |  | 48 | 1.5 | 44 | 2 | 75 | 2.4 |  |  |  |  |  |  |  |  |  | 
